The melting point is the temperature, or range, at which the solid turns liquid.

One data set concerns wheat. Kind of data set: Test Example 5: effect on crop by foliage application, plastic box (symbol e). Format: in vivo. To be noted: 320 g/ha, 3 weeks after application. A digest of the protocol: (§1)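 Box culture: sterile diluvial soil, seeds spot-sown, ~1.5 cm cover, raised under glass at 25–30° C.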
For data set [1], the system named is Echinochloa crus-galli var. crus-galli. Kind of data set: Test Example 3: herbicidal effect by foliage application, Wagner pot (symbol H). It is filed as in vivo. Conditions: application herbicide amount 320 g/ha. A digest of the protocol: (§2)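 Post-emergence, paddy-type test: seedlings 14 d old in shallow-flooded (0.1–0.5 cm) alluvial soil, 25–30 °C greenhouse. Emulsion diluted to target rate, sprayed on leaves. Read-out: visual effect on each species at 3 weeks, per set criteria.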

The next data set concerns rapeseed. Kind of data set: Test Example 5: effect on crop by foliage application, plastic box (symbol g). Conditions: 320 g/ha, 3 weeks after application. It is filed as in vivo. The method in brief: as §1
Another data set deals with beet. Kind of data set: Test Example 5: effect on crop by foliage application, plastic box (symbol f). Format: in vivo. Conditions: 320 g/ha, 3 weeks after application. A digest of the protocol: as §1
A further data set relates to Digitaria ciliaris. Briefly: Test Example 5: herbicidal effect by foliage application, plastic box (symbol F). It is filed as in vivo. Conditions: 320 g/ha, 3 weeks after application. The method in brief:
(§3)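 Effect is rated 3 weeks after a foliar spray of water-diluted emulsion concentrate at a predetermined herbicide amount. Plants had grown 14 days in a 25° C. to 30° C. greenhouse from seed in sterilized diluvial soil.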

In another data set the test system is Abutilon theophrasti. Briefly: Test Example 5: herbicidal effect by foliage application, plastic box (symbol M). Format: in vivo. To be noted: 320 g/ha, 3 weeks after application. A digest of the protocol:
as §3

In the next data set the test system is Stellaria media. Kind of data set: Test Example 5: herbicidal effect by foliage application, plastic box (symbol P). It is filed as in vivo. To be noted: 320 g/ha, 3 weeks after application. A digest of the protocol: as §3
For the next data set, the system named is Apera spica-venti. Briefly: Test Example 5: herbicidal effect by foliage application, plastic box (symbol L). Format: in vivo. Conditions: 320 g/ha, 3 weeks after application. The method in brief:
as §3

Another data set relates to Cyperus difformis. Kind of data set: Test Example 3: herbicidal effect by foliage application, Wagner pot (symbol E). It is filed as in vivo. To be noted: application herbicide amount 320 g/ha. The method in brief:
as §2

The next data set relates to Lolium multiflorum Lam. Briefly: Test Example 5: herbicidal effect by foliage application, plastic box (symbol K). It is filed as in vivo. To be noted: 320 g/ha, 3 weeks after application. The method in brief: as §3
The test system of another data set is Avena fatua. Briefly: Test Example 5: herbicidal effect by foliage application, plastic box (symbol I). Format: in vivo. To be noted: 320 g/ha, 3 weeks after application. A digest of the protocol: as §3
The test system of data set [2] is Echinochloa crus-galli var. crus-galli. Kind of data set: Test Example 5: herbicidal effect by foliage application, plastic box (symbol H). It is filed as in vivo. To be noted: 320 g/ha, 3 weeks after application. A digest of the protocol: as §3
A further data set deals with soybean. Kind of data set: Test Example 5: effect on crop by foliage application, plastic box (symbol d). Conditions: 320 g/ha, 3 weeks after application. Format: in vivo. A digest of the protocol:
as §1

The test system of the next data set is Alopecurus myosuroides. Briefly: Test Example 5: herbicidal effect by foliage application, plastic box (symbol J). Format: in vivo. Conditions: 320 g/ha, 3 weeks after application. A digest of the protocol:
as §3

Another data set deals with Amaranthus retroflexus. Briefly: Test Example 5: herbicidal effect by foliage application, plastic box (symbol N). To be noted: 320 g/ha, 3 weeks after application. It is filed as in vivo. A digest of the protocol:
as §3

For a further data set, the system named is corn. Kind of data set: Test Example 5: effect on crop by foliage application, plastic box (symbol c). It is filed as in vivo. Conditions: 320 g/ha, 3 weeks after application. The method in brief: as §1
Another data set has as its system Setaria viridis. Kind of data set: Test Example 5: herbicidal effect by foliage application, plastic box (symbol G). Format: in vivo. To be noted: 320 g/ha, 3 weeks after application. The method in brief: as §3
For a further data set, the system named is Leptochloa chinensis. Briefly: Test Example 3: herbicidal effect by foliage application, Wagner pot (symbol D). Format: in vivo. Conditions: application herbicide amount 320 g/ha. A digest of the protocol:
as §2

In data set [3] the test system is directly sowed rice plant. Kind of data set: Test Example 3: effect on crop by foliage application, Wagner pot (symbol b). Conditions: application herbicide amount 320 g/ha. It is filed as in vivo. The method in brief:
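Plants are raised from seed in flooded paddy conditions: water stands 0.1–0.5 cm over alluvial soil, and the pot is kept in a greenhouse at 25–30 °C. Species sown are barnyardgrass (E. crus-galli var. crus-galli), Leptochloa chinensis, Cyperus difformis and rice.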

In the next data set the test system is Chenopodium album. Briefly: Test Example 5: herbicidal effect by foliage application, plastic box (symbol O). It is filed as in vivo. To be noted: 320 g/ha, 3 weeks after application. The method in brief: as §3
For a further data set, the system named is Veronica persica. Kind of data set: Test Example 5: herbicidal effect by foliage application, plastic box (symbol R). It is filed as in vivo. To be noted: 320 g/ha, 3 weeks after application. A digest of the protocol: as §3
A further data set concerns Galium spurium. Briefly: Test Example 5: herbicidal effect by foliage application, plastic box (symbol Q). To be noted: 320 g/ha, 3 weeks after application. Format: in vivo. A digest of the protocol:
as §3

A further data set deals with rice plant. Briefly: Test Example 5: effect on crop by foliage application, plastic box (symbol b). It is filed as in vivo. To be noted: 320 g/ha, 3 weeks after application. The method in brief:
as §1

Structures are written as SMILES.

With `CON=C(C)CC1CC(O)=C(c2c(C)cc(C#N)cc2C)C1=O` (stereo not drawn) [6-027], the melting point lay within 181 to 184 °C. Moreover, the “e: wheat, effect on crop grade” value in the data set with wheat is reported as 0 (Herbicidal ratio of 5% or lower (almost no effect)). The “herbicidal effect on H (Echinochloa crus-galli var. crus-galli), grade 0-5” value in data set [1] was 2 (Herbicidal ratio of 20% or higher and lower than 40%). For the same compound, the “g: rapeseed, effect on crop grade” value in the data set with rapeseed is listed as 0 (Herbicidal ratio of 5% or lower (almost no effect)). Further, the “f: beet, effect on crop grade” value in the data set with beet was 0 (Herbicidal ratio of 5% or lower (almost no effect)). In addition, in the data set with Digitaria ciliaris, the “F: Digitaria ciliaris, herbicidal effect grade” value is 3 (Herbicidal ratio of 40% or higher and lower than 70%). In addition, the “M: Abutilon theophrasti, herbicidal effect grade” value with Abutilon theophrasti is reported as 0 (Herbicidal ratio of 5% or lower (almost no effect)). Moreover, the “P: Stellaria media, herbicidal effect grade” value in the data set on Stellaria media is 0 (Herbicidal ratio of 5% or lower (almost no effect)). Also, in the data set with Apera spica-venti, the “L: Apera spica-venti, herbicidal effect grade” value is 0 (Herbicidal ratio of 5% or lower (almost no effect)). Also, the “herbicidal effect on E, grade 0-5” value in the data set on Cyperus difformis was 0 (Herbicidal ratio of 5% or lower (almost no effect)). Also, the “K: Lolium multiflorum Lam., herbicidal effect grade” value with Lolium multiflorum Lam. is listed as 0 (Herbicidal ratio of 5% or lower (almost no effect)). Further, the “I: Avena fatua, herbicidal effect grade” value with Avena fatua was 1 (Herbicidal ratio of 5% or higher and lower than 20%). The “H: Echinochloa crus-galli var. crus-galli, herbicidal effect grade” value in data set [2] is 4 (Herbicidal ratio of 70% or higher and lower than 90%). For the same compound, the “d: soybean, effect on crop grade” value in the data set on soybean is listed as 0 (Herbicidal ratio of 5% or lower (almost no effect)). Besides, the “J: Alopecurus myosuroides, herbicidal effect grade” value in the data set with Alopecurus myosuroides is given as 0 (Herbicidal ratio of 5% or lower (almost no effect)). Besides, the “N: Amaranthus retroflexus, herbicidal effect grade” value with Amaranthus retroflexus was 0 (Herbicidal ratio of 5% or lower (almost no effect)). Moreover, the “c: corn, effect on crop grade” value in the data set on corn is 1 (Herbicidal ratio of 5% or higher and lower than 20%). Besides, the “G: Setaria viridis, herbicidal effect grade” value in the data set on Setaria viridis is 4 (Herbicidal ratio of 70% or higher and lower than 90%). Also, the “herbicidal effect on D (Leptochloa chinensis), grade 0-5” value in the data set with Leptochloa chinensis is 3 (Herbicidal ratio of 40% or higher and lower than 70%). Moreover, the “effect on crop b (directly sowed rice plant), grade 0-5” value in [3] is given as 0 (Herbicidal ratio of 5% or lower (almost no effect)). Also, in the data set on Chenopodium album, the “O: Chenopodium album, herbicidal effect grade” value is on record as 0 (Herbicidal ratio of 5% or lower (almost no effect)). In addition, in the data set with Veronica persica, the “R: Veronica persica, herbicidal effect grade” value is on record as 0 (Herbicidal ratio of 5% or lower (almost no effect)). In the data set with Galium spurium, the “Q: Galium spurium, herbicidal effect grade” value is recorded as 0 (Herbicidal ratio of 5% or lower (almost no effect)). Further, the “b: directly sowed rice plant, effect on crop grade” value with rice plant was 1 (Herbicidal ratio of 5% or higher and lower than 20%).

(Values after US11000033B2, “Ketone or oxime compound, and herbicide” (NISSAN CHEMICAL CORPORATION, priority 2014, dated 2021).)
